Tests used:
[1] = system: skin inflammatory response to an energy injury; experiment: Effectiveness of the burn treatment as a function of pH and concentration of the lactic acid
Description: In contrast to the normally low concentrations found in skin, the preferred product formulation is based on 10% weight/weight concentration of L-Lactic Acid, with pH of 2.34 that is compared to normal skin lactate levels that are around <3 mmol/L and skin pH between 6.8-7.0 pH.

[2] = system: skin inflammatory response to an energy injury; experiment: Topical application to heat-caused first or second degree burns (FIG. 1, burn cases in general); format: in vivo, human
Description: An energy injury is a sunburn, heat burn, or other radiation energy burn including thermal heat energy burns. […] As noted by the prior art discussed above, L-lactic acid was originally intended to facilitate reversing the signs/appearance of aging in cosmetic surgery patients by loosening and subsequent exfoliation of outer layer dead skin cells using L-Lactic Acid as the active ingredient. L-Lactic Acid is the only stereoisomer configuration of lactic acid that is active in cellular metabolism. In its original application, the L-Lactic Acid formulation very effectively results in increased epidermal cell turnover and stimulation of new collagen deposition in the deeper dermal skin layer of uninjured skin. However, the prior art teaches that acid irritates and burns the skin and teaches that concentrated acid should never be applied to an injury or burn area. […] In this manner, the action of 15% or less L-Lactic Acid with pH of less than 3.0 applied topically to an acute severe second degree burn appears to safely halt and then reverse the dermal inflammatory response cascade of events. Thus, capillary swelling decreases, leaked vascular fluid returns into the capillaries and/or lymph channels, and redness disappears as a result of fewer red blood cells in the area.
The preferred and proven application of the product should occur as soon as possible after the energy injury during the inflammatory response. However, the application is effective at any time during the skin inflammatory response. This initial application, if possible, should be within one hour for ANY first or second degree burn including a deep second degree burn such as a sunburn, touching a 400 degree oven pan. radiation therapy, or laser resurfacing treatment. This topical application has a phenomenal effect on both the visible appearance and experienced physical symptoms of the burn. […] When looking at FIGS. 1 and 2 one may see that this initial application 100 time affects how much of the untreated skin inflammatory response 60 and damage that must be overcome with the faster the application 100, the better the treated effect 150. […] The patient schedule, effectiveness of the application 100, and the increased concentration resulting in an increased patient's skin irritation become an issue with shortening the intervals for reapplication.

## C[C@H](O)C(=O)O [L-Lactic Acid, L-lactic acid]
[1]; 2.5 pH, 2.4 pH
  effectiveness for the treatment: increased effectiveness
[1]; 2.8 pH
  effectiveness for the treatment: further increasing effectiveness
[1]; 3.0 pH
  effectiveness for the treatment: increasing effectiveness compared to the 3.5 pH
[1]; 3.5 pH
  effectiveness for the treatment: increasing effectiveness over the 4.0 pH
[1]; 4.0 pH
  effectiveness for the treatment: slightly effective
[1]; above a 4.0 pH
  effectiveness for the treatment: ineffective
[1]; concentrations over 30%
  skin effect of high concentrations: incite exfoliation
[2]; FIG. 1, applied within four hours of the initial burn
  skin inflammatory response compared against the untreated norm: immediate and significant impediment to the skin inflammatory response
[2]; FIG. 1 example, applied within four hours of the initial burn
  exfoliation or blister occurrence: no apparent exfoliation or blister occurrence
[2]; any burn cases
  blister formation after treatment: no blister formation has occurred
[2]; applied 1 hour, 2 hours, 4 hours, and 6 hours after the energy injury
  applications at different times after the energy injury: successfully tested

Source: patent US20160038446A1, “METHOD FOR IMPEDING SKIN INFLAMMATORY RESPONSE TO AN ENERGY INJURY” (priority 2014, published 2016)
